Laboratory results reported in US10588902B2, “Camptothecin derivatives as anti-HIV agents and methods of identifying agents that disrupt Vif self-association” (OyaGen, Inc., priority 2013, dated 2020).
Converted amounts (≈) assume the structure as drawn.

Experiments:
[1] = PubChem BioAssays; cited from earlier work
[2] = biological target: T1, Topo1 (Homo sapiens, UniProt P11387); experiment: in vitro Topo1 drug screening assay (Topogen); type: biochemical; conditions: increasing amounts, compared to the 0 chem control
T1 construct: purchased Topogen
T1 sequence (P11387 1-765): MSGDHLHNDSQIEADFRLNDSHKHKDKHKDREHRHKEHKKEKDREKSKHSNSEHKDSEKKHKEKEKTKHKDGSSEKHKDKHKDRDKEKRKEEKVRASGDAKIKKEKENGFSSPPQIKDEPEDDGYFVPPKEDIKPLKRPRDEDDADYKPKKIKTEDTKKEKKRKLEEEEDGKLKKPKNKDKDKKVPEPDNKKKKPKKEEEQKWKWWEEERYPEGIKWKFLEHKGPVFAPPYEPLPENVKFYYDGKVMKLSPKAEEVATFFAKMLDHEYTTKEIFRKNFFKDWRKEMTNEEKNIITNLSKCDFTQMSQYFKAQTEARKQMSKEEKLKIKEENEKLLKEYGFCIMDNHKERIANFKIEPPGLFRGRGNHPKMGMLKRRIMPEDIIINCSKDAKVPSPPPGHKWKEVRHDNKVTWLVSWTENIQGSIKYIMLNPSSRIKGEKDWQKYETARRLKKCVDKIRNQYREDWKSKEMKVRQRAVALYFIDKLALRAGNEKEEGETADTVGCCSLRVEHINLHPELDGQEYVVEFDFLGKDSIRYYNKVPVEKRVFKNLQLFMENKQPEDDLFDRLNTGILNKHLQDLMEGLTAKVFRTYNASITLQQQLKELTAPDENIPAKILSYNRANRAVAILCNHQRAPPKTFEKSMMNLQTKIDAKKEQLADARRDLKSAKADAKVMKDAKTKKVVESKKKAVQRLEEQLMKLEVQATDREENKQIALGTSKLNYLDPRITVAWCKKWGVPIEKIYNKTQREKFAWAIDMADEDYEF

[3] = tested on: A3.01 cells; experiment: cell cycle test (propidium iodide, flow cytometry); type: cell-based; conditions: for G2 block: CPT 0.2 μM, OYA002-16 0.2 and 0.4 μM
Procedure: FIGS. 9A and 9B illustrate results of an in vitro drug screening assay for toxicity of the OYA002-16 small molecule of the present invention. […] After 24 hours of compound treatment cells were fixed in methanol and treated with propidium iodide (PI) to stain the cellular DNA in A3.01 cells (a CEM derived T-cell line). Flow cytometry of the cells can detect if the cells are in the G1 S or G2 phase of mitosis based on amount of PI staining in each cell.

[4] = biological target: T2, Vif:Vif complex (Human immunodeficiency virus type 1 group M subtype B, UniProt P12504); type: cell-based, HIV; conditions: change in RFU over the quenched control
T2 construct: expressed in transfected cells; host or cells: HEK 293T cells, transient co-transfection of two plasmids
Text: EGFP-V5-Vif (the fluorescence donor) and Vif-HA-REACh2 (the acceptor and non-fluorescent YFP variant that quenches EGFP fluorescence) will be co-expressed in HEK 293T cells. Compounds that dissociate Vif multimers will induce EGFP fluorescence making this a positive screen for small molecules that disrupt Vif self-association.
EGFP is a FRET donor and REACh2 (Resonance Energy Accepting Chromoprotein 2) is a non-fluorescent FRET acceptor (54). The non-fluorescent REACh2 is able to quench EGFP signal in a distance-dependent manner when they are linked to interacting domains. However, if there is no interaction, EGFP and REACh2 are not proximal and quenching will not occur. […]
EGFP-V5-Vif alone has a strong baseline fluorescence. […]
Experimentals relating to adapting the quenched FRET assay to 96-well and 384-well format are set forth below: • Description of reagents and readouts: We are currently capable of screening small libraries in 96-well format, and have optimized transfections for 384-well format. […] REACh2 is a non-fluorescent YFP variant that quenches EGFP through FRET, so in the default state Vif dimerizes and the EGFP signal is quenched, a compound that affects the interaction will cause an increase in fluorescence due to lack of FRET from interacting proteins (aka “releasing of the quench”). Our read out is fluorescence at GFP's excitation and emission in a PE Victor 3 plate reader. […]

[5] = tested on: pseudotyped HIV; experiment: single round infectivity assay with pseudotyped HIV (TZM-bl luciferase reporter cells); type: cell-based; conditions: up to 33.3 μM, +/−Vif, +/−A3G
Procedure: The antiviral activity of the hits in a single round infection with psuedotyped HIV was assessed. […] The wildtype HIV proviral vector codes for all HIV genes except nef (replaced with EGFP) and env. The delta Vif proviral vector is identical to wildtype except that it contains a stop codon early within the vif gene. […] Alternatively, in the absence of A3G, both wild type and Delta Vif viruses should have good infectivity.
Transfecting the coat protein on a separate vector, allows for only a single round of infection. […] Viral load was normalized with a p24 ELISA Kit (Zeptometrix, Buffalo, N.Y.). Equal viral loads were then added in triplicate to TZM-bl reporter cells that express luciferase from the HIV-LTR promoter. 48 hours after infection luciferase levels were assessed with Steady-Glo reagent (Promega).
The antiviral activity of the hits in a single-round infection with pseudotyped HIV were conducted using HEK293T producer cells +/−A3G and viruses that are +/−Vif. […]
The infections utilized TZM-bl reporter cells that contain stably integrated luciferase that is driven by the HIV-LTR promoter, therefore luciferase is expressed upon successful HIV infection. […] Luminescence was measured as a quantitative metric for changes in infectivity with each compound as compared to controls, in which relative luminescence units (RLU) with no compounds are set to 100%.

[6] = tested on: A3G in viral particles; experiment: A3G viral particle content (western blot of purified viral particles); type: cell-based; conditions: p24 normalized
Text: Perform ‘hit’ validation assays to confirm that small molecules selected by the primary and secondary screens have antiviral activity through their antagonism of Vif self-association. Antiviral activity will be validated for each compound with a luciferase viral infectivity reporter assay using infected TZM-bl cells in microtiter plate format. Each compound's ability to inhibit Vif-Vif interaction will be evaluated by co-immunoprecipitation.
Another way to observe target specificity is by looking at the amount of A3G that is encapsulated into the viral particle. Since Vif blocks A3G from getting into the virus, more A3G should be present in viral particles isolated from cells dosed with a small molecule that disables Vif's function.

[7] = tested on: Vif-dependent A3G degradation; experiment: in-cell secondary screen for Vif-dependent A3G degradation (A3G-mCherry 293T cells); type: cell-based; conditions: compared to +Vif (0%) and −Vif (100%) controls
Procedure: FIG. 10 illustrates in-cell secondary screen fro Vif-dependent A3G degradation. […] 50 ng of Vif was transiently transfected into the cells in 384-well format with Turbofect. 4 hours after transfection the chemistries were added to cells. 24 hours after chemistries were added the mCherry signal was read on a Biotek Synergy 4 plate reader. The signal from plated cells not transfected with Vif was averaged and set at 100% (left image), and cells transfected with Vif and treated with DMSO only were averaged and set at 0% (right image). A chemistry that inhibits Vif's ability to chaperone A3G to the proteasomal degradation pathway would result in an increased mCherry signal compared to the DMSO only control, and any signal that is much higher than the no-Vif positive control is likely to be due to autofluorescence from the chemistry itself.
The primary screen is represented as a change in RFU over the quenched control (ARFU). The secondary screen is compared to the +Vif (0%) and −Vif (100%) controls as described in FIG. 10.

[8] = tested on: 885 bp region of Pol; experiment: Next Gen Sequencing for A3G signature mutation profiles; type: cell-based, HIV
Text: FIG. 14 is an illustration relating to a Next Gen Sequencing for A3G signature mutation profiles. Next Gen Sequencing with the Ion Torrent platform was used to sequence over 27 million bases for each sample. An 885 bp region of Pol was nested PCR amplified from genomic DNA isolated from TZM-bl cells infected in the previous Figures with −Vif virus+A3G (Positive Control) and +Vif virus+A3G & OYA002-16 (OYA002-16) and −Vif−A3G & OYA002-16 (Negative Control). There were 60 possible A3G “GG” signature mutation sites (A3G mediated single-stranded DNA mutations occur preferentially at the 3′ C of CC dinucleotide pairs) in the region sequenced. 34 sites were mutated at a rate of 15- to 339-fold over the background mutation rate for the Positive Control. 34 sites were mutated at a rate of 48 to 200-fold over background for the OYA002-16 sample. 21 sites overlapped between the two.

[9] = tested on: HepG2 cells; experiment: high content imaging toxicity study, HepG2; type: cell-based
Procedure: (§1) All cells are plated on 384-well collagen-coated, tissue culture-treated black walled clear bottomed polystyrene plates. Rat hepatocytes are seeded and dosed on the day they are harvested. Dosing takes place after attachment to the plate. They are treated with test compound at a 10 point dose range of concentrations and incubated for 24 and 48 hrs. HepG2 cells are seeded on the day prior to dosing and are treated with test compound at a 10 point dose range of concentrations and incubated for 24 and 72 hours. At the end of the incubation period, the cells are loaded with the relevant dye/antibody for each cell health marker. The plates are then scanned using an automated High Content Imager, Array Scan® VTI (Thermo Fisher Cellomics). The GSH, ROS, and 5 day toxicity assays were run at 1 time point, 18 hours post-dosing for GSH, 4 hr post-dose for ROS, and 5 days post-drug treatment for the 5 day assay.

[10] = tested on: rat hepatocytes and HepG2 cells; experiment: high content imaging toxicity study, all tested cell types; type: cell-based
Procedure: as §1

[11] = solubility in Lac-Buffer; type: physicochemical; conditions: 37 °C, thermodynamic from solid
Procedure: Solubility: 0.7 mg of OYA002-16 was suspended in 100.8 μl Lac-Buffer pH 4.5 or pH 7.4, vortexed for 10 min and warmed-up at 37° C. for 10 min, sonicated for 5 min and vortexed again for 10 min and centrifuged for 10 min. Supernatant was directly injected for concentration measurement. pH 7.4 Solubility: 65-72 μM by UV, 58-63 μM by CLND. pH 4.5 Solubility: 74-92 μM by UV, 74 μM by CLND.
(§2) HPLC conditions used for the experiments were as follows: Column: Luna C-18, 150×4.6 from Phenomenex. Eluent: 42% aqueous CAN with 0.75 mM NH4OAc, pH=6.8. Detection: UV at 254 nm. Temperature: 35° C. Flow: 1.5 mL/min. Injection: 20 uL (solubility, freeze/thaw) or 200 uL (stability).

[12] = stability test in PBS buffer; type: physicochemical; conditions: after 48 h in PBS
Procedure: For each compound, a 0.250 uM stock solution in DMSO was prepared and sonicated until clear. Then, for each stability test, the cpd was formulated by adding 10 uL of the stock solution to 990 uL of PBS buffer, pH 7.0 and then a 200 uL aliquot was incubated 37° C. for 24 or 48 hrs.
as §2

[13] = stability test after 3 freeze/thaw cycles; type: physicochemical
Procedure: For each compound, an aliquot of the stock solution (250 uM in DMSO) was frozen for 24 hrs at −80° C. and thawed for 1 hr, 3 times, then diluted 10 times in 40% CAN and analyzed by HPLC.
as §2

T2 sequence (P12504 whole entry, one chain of several): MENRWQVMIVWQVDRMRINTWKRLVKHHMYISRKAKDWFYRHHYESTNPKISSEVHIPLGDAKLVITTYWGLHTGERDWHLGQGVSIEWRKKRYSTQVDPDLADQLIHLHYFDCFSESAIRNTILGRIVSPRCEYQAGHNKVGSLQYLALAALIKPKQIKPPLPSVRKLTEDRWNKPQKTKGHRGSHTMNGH

Compound: CC[C@@]1(O)C(=O)OCc2c1cc1n(c2=O)Cc2cc3c(NC(=O)CN)cccc3nc2-1 [9-glycineamido-20(S)-CPT]
- active in Anti-Cancer Screens at NCI [1]: 37 of 76

Compound: CC[C@@]1(O)C(=O)OCc2c1cc1n(c2=O)Cc2cc3c(CN(C)C)c(O)ccc3nc2-1 [Topotecan]
- active in Anti-Cancer Screens at NCI [1]: active in most

Compound: CC[C@@]1(O)C(=O)OCc2c1cc1n(c2=O)Cc2cc3ccccc3nc2-1 [CPT, Camptothecin]
- open nicked circles of plasmid DNA (Topo1 poisoning) [2]: trap plasmid DNA into open nicked circles
- G2 block ([3]; 24 hours): strong G2 block

Compound: CC[C@@]1(O)C(=O)NCc2c1cc1n(c2=O)Cc2cc3ccccc3nc2-1 [OYA002-16, Lactam-CPT]
- dose dependence in primary screen [4]: dose dependence
- antiviral effect in single cycle HIV infectivity [5]: dose dependent antiviral effect only when Vif and A3G were expressed
- A3G in viral particles [6]: increases A3G in viral particles
- open nicked circles of plasmid DNA (Topo1 poisoning) [2]: no increase in open nicked circles
- cell cycle effects [3]: minimal cell cycle effects
- cells in G2 ([3]; 0.2 and 0.4 μM, 24 hours, DMSO control 17%): 22%
- G2 block ([3]; 24 hours): minimal amount of G2 block
- dose dependence in secondary screen (mCherry signal) [7]: dose dependence
- mutated sites overlapping with Positive Control [8]: 21 sites
- A3G signature mutation sites mutated ([8]; +Vif virus +A3G, 60 possible sites): 34 sites
- Cytostasis [9]: largest effect
- Stress and Apoptosis assays [10]: minimal effect
- Viability tests [10]: minimal effect
- solubility at 35 min ([11]; pH 4.5, aqueous buffer, pH 4.5, by CLND): 74 µM (≈ 25.7 µg/mL)
- solubility at 35 min ([11]; pH 4.5, aqueous buffer, pH 4.5, by UV): 74 to 92 µM (≈ 25.7 to 32 µg/mL)
- solubility at 35 min ([11]; pH 7.4, aqueous buffer, pH 7.4, by CLND): 58 to 63 µM (≈ 20.1 to 21.9 µg/mL)
- solubility at 35 min ([11]; pH 7.4, aqueous buffer, pH 7.4, by UV): 65 to 72 µM (≈ 22.6 to 25 µg/mL)
- stable [12]: 100%
- stable [13]: 100%

Compound: CC[C@H]1C(=O)OCc2c1cc1n(c2=O)Cc2cc3ccccc3nc2-1 [deoxy-CPT]
- active in Anti-Cancer Screens at NCI [1]: 4 of 68
